Experiments:
[1] = test system: hearts of phenobarbital anaesthetized rats (myocardial tissue); test: Infarct size after 60 minutes coronary artery occlusion and 180 minutes of reperfusion in anaesthetized rats; type: in vivo, rat; conditions: normothermia (36.5-37.5° C.), 3.3 mg/kg bodyweight i.v. bolus in 10 minutes, 25 minutes prior to CAO, 60 min CAO, 180 min reperfusion, mean ± standard error margin, n=6, P<0.001 vs control (69±2%)
Experimental: Area at risk (AR) and infarcted area (IA) were determined in hearts of phenobarbital anaesthetized rats after 60 minutes coronary artery occlusion (CAO) and 180 minutes of reperfusion. […] The mean AR expressed as percentage of the left yentricle was not different between the control and the experimental group (42±2% and 42±3%, respectively).

[2] = test system: deep burn wounds (skin/dermis structures); test: Deep burn wound model in the Yorkshire pig; type: in vivo, Yorkshire White; conditions: administered intravenously in a single dose
Source text: The Yorkshire pig has been chosen as the experimental animal because of all animal species this domestic pig seems to be the one with morphological and functional skin characteristics nearest to human skin and so best fulfils the requirements of a model for human skin. In basic architecture it resembles human skin in the relative thickness of the epidermis and dermis, the presence of epidermal ridges, a distinct dermal papillary layer and a deep layer of subdermal fat. Compared to human the elastic fibre content of porcine dermis is relatively low, but higher than in any other species. […] Studies on the proliferation rate of porcine epidermis show parallels with those of humans. The keratinous proteins are similar. Unlike the skin of rodents, the follicular pattern in pigs and humans is relatively sparse and arranged as single hairs or in groups of two or three follicles. […] The regulation of body temperature by the skin is more evident in humans than in the pig. In the skin of the pig no eccrine glands are found. It does have apocrine glands, but their role in thermoregulation remains debatable. The vascular anatomy of pig skin consists of a three layered network; lower, mid-dermal and sub epidermal. The size, orientation and distribution of the vessels are strikingly similar to human skin, but it does differ from humans in that the sub epidermal network is less dense. The vascularisation of the lower region of the follicle corresponds to that in humans. The healing of deep dermal burns, which depends on this phenomenon, might also be analogous. Studies on the thermal properties of porcine skin as a function of depth have been performed by measuring the tissue water content.
Protocol 1a: Twelve identical deep burn wounds were inflicted in each animal. The animal model used is developed in the Burn Research Institute (Beverwijk, The Netherlands) and is a standard for all of the experimental burn wound research. The model is also accepted by the animal experimental commission of the University of Amsterdam. […]

SMILES: Cc1occc(=O)c1[O-].Cc1occc(=O)c1[O-].[O]=[V+2] [bis(maltolato)oxovanadium(IV)]
- IA/AR ratio (infarcted area / area at risk) [1]: 45±3%
- contractions of scars [2]: considerably reduced
- healing of burn wounds [2]: faster healing
- structures present in the dermis (deep vascular plexus, hair-adnexes (sebaceous glands), sweat glands) [2]: protected
